Two molecules from article PMC10266451, “SKF96365 modulates activity of CatSper channels in human sperm” (Molecular Human Reproduction, 2023) can be followed below.

By pEC50 is commonly meant the EC50 on a negative log10 scale, so that one unit is a factor of ten.

SMILES strings stand for the structures. pEC50: −log10 of the molar value.

Holding throughout (type): cell-based
Test [1] concerns the target T1, CatSper (cation channel of sperm) (Homo sapiens, UniProt Q7RTX7+Q86XQ3+Q8NEC5+Q96P56).
T1 construct: gene CATSPER1; native channel complex in capacitated donor spermatozoa; with Cation channel sperm-associated auxiliary subunit beta; Cation channel sperm-associated auxiliary subunit gamma; Cation channel sperm-associated auxiliary subunit delta; Cation channel sperm-associated auxiliary subunit epsilon; Cation channel sperm-associated auxiliary subunit zeta
As to the kind of experiment: whole-cell patch clamp of human sperm, Cs+ CatSper currents. As to conditions: activation within 30 s, followed by secondary block; divalent-free Cs+ solutions, ramps -80 to 80 mV. Background: Patch clamp records ionic current or voltage across a cell membrane.

The target in test [2] is T1, CatSper (cation channel of sperm). Description: fluo4 Ca2+ population fluorimetry in human sperm. As to conditions: activation, capacitated intact sperm, sEBSS with BSA, whole-cell [Ca2+]i read-out attributed to CatSper.
For test [3] the target is unchanged. As to the kind of experiment: whole-cell patch clamp of human sperm, Cs+ CatSper currents. As to conditions: activation, stable; divalent-free Cs+ solutions, ramps -80 to 80 mV; direct binding to CatSper not tested.

As to `COc1ccc(CCCOC(Cn2ccnc2)c2ccc(OC)cc2)cc1` (stereo not shown) [SKF96365], the “% current enhancement at 30 μM” value in test [1] is recorded as 100%. In addition, the pEC50 in test [2] (mechanism distinct from progesterone) was 5.02.

As to `CC(=O)[C@H]1CC[C@H]2[C@@H]3CCC4=CC(=O)CC[C@]4(C)[C@H]3CC[C@]12C` [progesterone], in test [3], the “% current increase at 3 μM” value was determined as 200%. In addition, in test [2] (direct binding to CatSper not tested), the pEC50 is 7.49.
